{"source": "patent US11603570B2", "about": "“Methods for the detection and treatment of leukemias that are responsive to DOT1L inhibition” (MEMORIAL SLOAN KETTERING CANCER CENTER, priority 2013, dated 2023)", "key": {"[1]": {"tested_on": "MV4-11", "assay": "Cell proliferation, MV4-11", "assay_type": "cell-based", "settings": "Homo sapiens; MLL-translocated line MV4-11; FIG. 2"}, "[2]": {"tested_on": "SEMK2", "assay": "Cell proliferation, SEMK2", "assay_type": "cell-based", "settings": "Homo sapiens; MLL-translocated line SEMK2; FIG. 2"}, "[3]": {"tested_on": "KOPN-8", "assay": "Cell proliferation, KOPN-8", "assay_type": "cell-based", "settings": "Homo sapiens; MLL-translocated line KOPN-8; FIG. 2"}, "[4]": {"tested_on": "Molm-13", "assay": "Cell proliferation, Molm-13", "assay_type": "cell-based", "settings": "Homo sapiens; MLL-translocated line Molm-13; FIG. 2"}, "[5]": {"tested_on": "THP-1", "assay": "Cell proliferation, THP-1", "assay_type": "cell-based", "settings": "Homo sapiens; MLL-translocated line THP-1; FIG. 2"}, "[6]": {"tested_on": "Jurkat", "assay": "Cell proliferation, Jurkat", "assay_type": "cell-based", "settings": "Homo sapiens; non-MLL-translocated line Jurkat; FIG. 2"}, "[7]": {"tested_on": "697", "assay": "Cell proliferation, 697", "assay_type": "cell-based", "settings": "Homo sapiens; non-MLL-translocated line 697; FIG. 2"}, "[8]": {"tested_on": "REH", "assay": "Cell proliferation, REH", "assay_type": "cell-based", "settings": "Homo sapiens; non-MLL-translocated line REH; FIG. 2"}, "[9]": {"tested_on": "HL-60", "assay": "Cell proliferation, HL-60", "assay_type": "cell-based", "settings": "Homo sapiens; non-MLL-translocated line HL-60; FIG. 2"}, "[10]": {"tested_on": "EOL-1", "assay": "Proliferation of MLL-PTD cell line EOL-1", "assay_type": "cell-based, human", "settings": "10 μM, 10-day period"}, "[11]": {"tested_on": "HOXA7, HOXA9, HOXA10, and MEIS1", "assay": "HOX/MEIS1 mRNA expression in NUP98-NSD1 transformed cells", "assay_type": "cell-based, mouse", "settings": "10 μM, 7 day treatment; FIG. 5B", "from_the_text": "FIG. 5B is a histogram showing mRNA expression of HOXA7, HOXA9, HOXA10, and MEIS1 relative to GAPDH (ddCT)."}, "[12]": {"tested_on": "H3K79me2", "assay": "H3K79 methylation in NUP98-NSD1 transformed cells", "assay_type": "cell-based, mouse", "settings": "10 μM"}, "[13]": {"tested_on": "H3K79me2", "assay": "H3K79me2 Western blot in MLL-AF9 transformed cells", "assay_type": "cell-based, mouse", "settings": "10 μM, 10 days, FIG. 8A"}, "[14]": {"tested_on": "OCI-AML2", "assay": "Proliferation of OCI-AML2 (DNTM3A mutant) cells", "assay_type": "cell-based, human", "protocol": "Apoptosis was assessed by staining cells with Annexin V 10 days after treatment. The extent of apoptosis was compared to that found in MLL-AF9 transformed cells treated in a similar fashion.\nCell numbers were assessed at multiple time points after treatment was initiated. […] Evidence of differentiation was assessed after DOT1L inhibition via characterization of cell surface marker expression—such as CD11b and CD15 expression, both of which are induced upon differentiation of myelomonocytic leukemia cells.\nMTT assays were performed on day 11."}, "[15]": {"tested_on": "HOXA9, HOXA10, MEIS1, HOXB3, HOXB4 and HOXB5 mRNA", "assay": "HOX gene qPCR in Npm1^cA/+Rosa^SB/+ AML cells", "assay_type": "cell-based, mouse", "settings": "10 μM, FIG. 14A", "protocol": "(§1) The effect of DOT1L inhibition on the levels of various HOX genes and HOX-associated genes was evaluated using qPCR."}, "[16]": {"tested_on": "HOXA9, HOXA10, MEIS1, HOXB3, HOXB4 and HOXB5 mRNA", "assay": "HOX gene qPCR in Npm1^cA/+Flt3^ITD/+ AML cells", "assay_type": "cell-based, mouse", "settings": "10 μM, FIG. 14B", "protocol": "as §1"}, "[17]": {"tested_on": "MLL-AF9 transformed cells", "assay": "Cell cycle arrest and apoptosis of MLL-AF9 transformed cells", "assay_type": "cell-based, murine"}, "[18]": {"tested_on": "H3K79me2", "settings": "0.048, 0.195, 0.781, 3.12, and 12.5 μm; FIG. 1A; cited from earlier work"}, "[19]": {"tested_on": "H3K79me2", "settings": "0.048, 0.195, 0.781, 3.12, and 12.5 μm; FIG. 1A; cited from earlier work", "remark": "listed apart in the source"}, "[20]": {"tested_on": "H3K79 methylation", "settings": "MLL-translocated leukemia cell lines; cited from earlier work"}, "[21]": {"tested_on": "MLL germline leukemia cell lines", "settings": "cited from earlier work"}, "[22]": {"tested_on": "MLL-translocated cell lines", "settings": "Daigle; cited from earlier work"}, "[23]": {"tested_on": "Kasumi-1", "assay": "Cell proliferation, Kasumi-1 (AML1-ETO)"}, "[24]": {"tested_on": "MUTZ-11", "assay": "Proliferation of MLL-PTD cell line MUTZ-11", "settings": "10 μM, 10-day period; FIG. 3A"}, "[25]": {"tested_on": "MLL-translocated cell lines", "assay": "Proliferation of MLL-translocated cell lines", "settings": "versus MLL-germline lines; FIG. 2"}, "[26]": {"tested_on": "OCI-AML3", "assay": "Differentiation marker CD11b in OCI-AML3 cells", "settings": "10 μM, days 4, 7, and 10; FIG. 11B"}, "[27]": {"tested_on": "Npm1^cA/+Rosa^SB/+ AML cells", "assay": "Colony formation of Npm1^cA/+Rosa^SB/+ AML cells", "settings": "10 μM; after primary and secondary transplantation; FIG. 12A, B"}, "[28]": {"tested_on": "Npm1^cA/+Flt3^ITD/+ AML cells", "assay": "Colony formation of Npm1^cA/+Flt3^ITD/+ AML cells", "settings": "10 μM, after primary and secondary transplantation, FIG. 12A, B"}, "[29]": {"tested_on": "MLL germline leukemia cell lines", "assay": "Proliferation of MLL germline leukemia cell lines", "settings": "10 μM; cell lines that do not show elevated HOXA gene expression; FIG. 2"}, "[30]": {"tested_on": "Npm1^cA/−Flt3^ITD/+ AML cells", "assay": "Survival of C57/BL6 mice injected with pre-treated Npm1^cA/−Flt3^ITD/+ cells"}}, "note": "“Also recorded” adds a separate entry of the source. Like-named read-outs stand apart in the source and are kept apart here."}
{"smiles": "CC(C)N(CCCNC(=O)Nc1ccc(C(C)(C)C)cc1)C[C@H]1O[C@@H](n2ccc3c(N)ncnc32)[C@H](O)[C@@H]1O", "note": "[EPZ004777, 1-(3-((((2R,3S,4R,5R)-5-(4-Amino-7H-pyrrolo[2,3-d]pyrimidin-7-yl)-3,4-dihydroxytetrahydrofuran-2-yl)methyl)(isopropyl)amino)propyl)-3-(4-(tert-butyl)phenyl)urea]", "values": [{"measurement": "IC50", "setting": "[1]", "result": 170, "unit": "nM"}, {"measurement": "IC50", "setting": "[2]", "result": 1700, "unit": "nM"}, {"measurement": "IC50", "setting": "[3]", "result": 620, "unit": "nM"}, {"measurement": "IC50", "setting": "[4]", "result": 720, "unit": "nM"}, {"measurement": "IC50", "setting": "[5]", "result": 3000, "unit": "nM"}, {"measurement": "IC50", "setting": "[6]", "result": "> 50000", "unit": "nM"}, {"measurement": "IC50", "setting": "[7]", "result": 35000, "unit": "nM"}, {"measurement": "IC50", "setting": "[8]", "result": 14000, "unit": "nM"}, {"measurement": "IC50", "setting": "[9]", "result": "> 50000", "unit": "nM"}, {"measurement": "proliferation", "setting": "[10]", "result": "significantly inhibited"}, {"measurement": "mRNA expression of HOXA7, HOXA9, HOXA10, and MEIS1", "setting": "[11]", "result": "substantial decrease; also recorded: strong inhibitory effect"}, {"measurement": "HOX promoter associated H3K79 methylation", "setting": "[12]; 7 day treatment", "result": "significantly reduced"}, {"measurement": "global H3K79me2 level (Western blotting)", "setting": "[12]; 10 days, NUP98-NSD1 cells, FIG. 8A", "result": "completely abrogated; also recorded: decrease"}, {"measurement": "global H3K79me2 level (Western blotting)", "setting": "[13]", "result": "completely abrogated; also recorded: decrease"}, {"measurement": "cell number versus DMSO", "setting": "[14]; 10 μM, compared with Molm-13, FIG. 10", "result": "equally, if not more sensitive; also recorded: sensitive"}, {"measurement": "IC50", "setting": "[14]; Homo sapiens, OCI-AML2, 264 h, MTT assays on day 11, concentrations up to 10 μM", "result": 150, "unit": "nM"}, {"measurement": "HOXA9, HOXA10, MEIS1, HOXB3, HOXB4 and HOXB5 mRNA levels", "setting": "[15]", "result": "decreased"}, {"measurement": "HOXA9, HOXA10, MEIS1, HOXB3, HOXB4 and HOXB5 mRNA levels", "setting": "[15]; listed as EPZ00477", "result": "significant decrease"}, {"measurement": "HOXA9, HOXA10, MEIS1, HOXB3, HOXB4 and HOXB5 mRNA levels", "setting": "[16]", "result": "decreased"}, {"measurement": "HOXA9, HOXA10, MEIS1, HOXB3, HOXB4 and HOXB5 mRNA levels", "setting": "[16]; listed as EPZ00477", "result": "significant decrease"}, {"measurement": "response to DOT1L inhibition", "setting": "[17]", "result": "cell cycle arrest and apoptosis"}, {"measurement": "H3K79me2 histone methylation", "setting": "[18]", "result": "inhibited"}, {"measurement": "H3K79me2 histone methylation", "setting": "[19]", "result": "inhibited"}, {"measurement": "concentration range inhibiting H3K79 methylation", "setting": "[20]", "result": "mid-nM range"}, {"measurement": "anti-proliferative effect", "setting": "[21]; MLL germline leukemia cell lines", "result": "no anti-proliferative effect"}, {"measurement": "factor by which leukemic cells lacking MLL fusions are less sensitive", "setting": "[21]", "result": "approximately 100"}, {"measurement": "antiproliferative, differentiating, and apoptotic activities toward leukemia cells harboring MLL fusions", "setting": "[22]", "result": "highly selective"}, {"measurement": "proliferation (cell counts)", "setting": "[23]; 10 μM, AML1-ETO (Kasumi) cells, FIG. 3B, 7D", "result": "not sensitive; also recorded: insensitive"}, {"measurement": "IC50", "setting": "[23]; Homo sapiens, Kasumi 1, read-out: IC50 for cell proliferation", "result": 33000, "unit": "nM"}, {"measurement": "proliferation (cell counts)", "setting": "[24]", "result": "significantly inhibited"}, {"measurement": "inhibition of proliferation of MLL-translocated cell lines", "setting": "[25]", "result": "selectively inhibits"}, {"measurement": "differentiation, cell surface marker CD11b expression", "setting": "[26]", "result": "increased differentiation"}, {"measurement": "colony formation potential", "setting": "[27]", "result": "significant reduction"}, {"measurement": "colony formation potential", "setting": "[28]", "result": "significant reduction; also recorded: reduce the colony formation potential"}, {"measurement": "colony formation potential", "setting": "[28]; listed as EPZ00477", "result": "significant reduction"}, {"measurement": "influence on proliferation", "setting": "[29]", "result": "does not influence"}, {"measurement": "day on which animals start dying", "setting": "[30]; cells treated with 10 μM, FIG. 13 A", "result": 31, "unit": "days"}, {"measurement": "survival time", "setting": "[30]; treatment of the AML cells with the DOT1L inhibitor", "result": "prolonged survival time"}]}
